Assay results from PMC4210147, “Sequence-Specific Dimerization of a Transmembrane Helix in Amphipol A8-35” (PLoS ONE, 2014).

What was measured:
[1] = Far-UV circular dichroism, secondary structure content of GpA TM domain; format: physicochemical; details: 25°C; for α-helix content: unlabeled GpA peptide 5 µM, DICHROWEB CDSSTR, reference set 7, at least three averaged scans
Protocol: CD spectra were recorded on a Jasco J-815 spectropolarimeter at 25°C in a step-scan mode using 0.1-cm path length quartz cells from Hellma (Mülheim, Germany). The concentration of unlabeled GpA peptide was 5 µM. Data points were collected at a resolution of 1 nm, an integration time of 1 s, and a bandwidth of 1 nm. Each shown spectrum results from at least three averaged scans from which buffer scans were subtracted. The measured ellipticity θ was converted to molar ellipticity [θ] by: [drawing 8] (5) where M is the molar mass, L the path length, and C the peptide concentration.
The GpA TM domain was reconstituted in 10 mM phosphate buffer (pH 7.4) containing A8-35 as well as in several solvents containing SDS, DDM, or pure TFE, which are known to stabilize α-helical structures. Prior to CD measurements, samples were treated in the same way as described above for FRET measurements. Secondary structure contents were estimated with the DICHROWEB software, [31] using both soluble and TM proteins as reference datasets (CDSSTR method, reference set 7).

[2] = biological target: T1, human GpA TM domain (Homo sapiens, UniProt P02724); assay: Steady-state FRET, GpA TM helix dimerization in A8-35; format: binding; details: n = 3; for dimer fraction (in words): pH 7.4, 25°C
T1 construct: purchased Peptide Specialty Laboratories, Heidelberg, Germany; host or cells: chemical synthesis (custom peptide)
T1 sequence (P02724 88-120 limits assumed) 1: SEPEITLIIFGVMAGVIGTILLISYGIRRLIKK
T1 sequence (P02724 88-120 limits assumed) 2: T1 sequence (P02724 88-120 limits assumed) 1
Description: Peptides corresponding to residues 69–101 of the human GpA TM domain ([…]) were custom-synthesized and labeled at the N-terminus with either the donor or the acceptor dyes fluorescein (FL) and 5-6-carboxyrhodamine (TAMRA), respectively (Peptide Specialty Laboratories, Heidelberg, Germany). The purity of the labelled peptides was confirmed by high-performance liquid chromatography (HPLC) and mass spectrometry. Based on this, the labeled peptides used in this study were>95% pure. Peptides were dissolved in 2,2,2-trifluoroethanol purchased from Sigma-Aldrich (Munich, Germany). APol A8-35 was purchased from Affymetrix (Santa Clara, USA) and sodium dodecyl sulfate (SDS) from Roth (Karlsruhe, Germany). N-dodecyl-β-D-maltopyranoside (DDM) was obtained from Sigma-Aldrich (Munich, Germany).
(§1) For Förster resonance energy transfer (FRET) measurements, equal concentrations of FL- and TAMRA-labeled GpA TM domains were used. Concentrations of the peptide stock solutions were determined from absorbance measurements on a Perkin Elmer Lambda 35 UV/VIS spectrophotometer. In all experiments, we used 0.25 µM for each of the two labeled GpA peptides. Peptides dissolved in TFE and A8-35 dissolved in ethanol were mixed, and organic solvents were removed under a gentle stream of nitrogen gas. Residual solvent traces were removed by vacuum desiccation overnight. The dried peptide/polymer film was then hydrated in 10 mM HEPES buffer (pH 7.4) containing 150 mM NaCl.
(§2) After at least 2 h of incubation at 37°C and 10 min of centrifugation at 16,000 g, steady-state fluorescence measurements were performed with the supernatant at 25°C on a Horiba Fluoromax 4 system with both excitation and emission slits at 3 nm. The excitation wavelength was set at 439 nm, and emission spectra were recorded from 480 to 650 nm. For FRET measurements with SDS, several concentrations of SDS, both below and above the CMC determined for the given buffer conditions, were used, and hydrated samples were incubated overnight.
(§3) Energy transfer E was calculated using the donor fluorescence intensities at 525 nm in presence and absence of acceptor according to [drawing 1] (1)
FD is the fluorescence intensity of the donor sample, and FDA is the fluorescence intensity of the sample containing donor and acceptor GpA TM domains at equal concentrations. The energy transfer of sequence-specific TM helix dimerization, ED, can be expressed as: [drawing 2] (2) where f D is the fraction of dimeric TM helices, P D is the probability of donor quenching when the peptides form a dimer, and E R is the energy transfer in the dimer.
The probability P D of donor quenching depends on the molar ratio of the acceptor peptides [drawing 3] , where [a] and [d] are the concentrations of acceptor and donor peptides, respectively. If the distance of the fluorophores in the dimer is much smaller than the Förster radius, as is the case here, ER can be taken as unity.
The fraction of dimers can be written as [drawing 4] , where [D] is the concentration of dimeric peptides and [T] the total peptide concentration.
The dissociation constant, K D, is given by [drawing 6] (4) where the monomer concentration is [drawing 7] .

[3] = biological target: T1, human GpA TM domain; assay: FRET kinetics of exchange of GpA TM peptides between particles/micelles; format: binding; details: for amplitude of first (fast) phase / amplitude of second (slow) phase / exchange rate constant, first (fast) phase / exchange rate constant, second (slow) phase: double-exponential fit
Protocol: as §1, §2, §3
To investigate the effect of A8-35 on the GpA dimer stability in greater detail, we next performed kinetic measurements and determined the exchange rates of GpA TM helices between various polymer particles after reconstitution. Upon addition of an excess of a competing surfactant, such as free APols, detergents or phospholipids, MPs can be released from preformed complexes with APols, although at very slow dissociation rates, and e.g. integrate into detergent micelles, [37]-[39]. To test this, donor- and acceptor-labeled GpA peptides were individually solubilized in 20 µM A8-35 and incubated at 37°C for at least 2 h. Next, A8-35-solubilized donor and acceptor peptides were mixed in a 1∶1 ratio, and fluorescence emission spectra were recorded every 10 min for about 17 h (Figure 3A). As a control necessary for calculation of energy transfer, this measurement was also performed with solely the donor sample, for which no changes in fluorescence intensity were observed. […] To compare the exchange rates measured in APols with rates determined in micellar environments, the same experiment was performed in 5 mM DDM micelles (Figure 3C).
Figure 3 Kinetics of the exchange of GpA TM peptides between APol aggregates. Donor- and acceptor-labelled GpA TM (each 0.25 µM) domains were separately solubilized in 20 µM APol at a final polymer/peptide ratio of 40∶1. (A) After incubation at 37°C, donor and acceptor were mixed, and emission spectra (normalized at 525 nm) were recorded every 10 min over a time period of 17 h at 25°C. (B) The energy transfer increased over hours to the level determined by steady-state FRET measurements due to mixing of donor- and acceptor-labelled peptides.

## CC[C@H](C)[C@H](NC(=O)CNC(=O)[C@H](Cc1ccc(O)cc1)NC(=O)[C@H](CO)NC(=O)[C@@H](NC(=O)[C@H](CC(C)C)NC(=O)[C@H](CC(C)C)NC(=O)[C@@H](NC(=O)[C@@H](NC(=O)CNC(=O)[C@@H](NC(=O)[C@@H](NC(=O)CNC(=O)[C@H](C)NC(=O)[C@H](CCSC)NC(=O)[C@@H](NC(=O)CNC(=O)[C@H](Cc1ccccc1)NC(=O)[C@@H](NC(=O)[C@@H](NC(=O)[C@H](CC(C)C)NC(=O)[C@@H](NC(=O)[C@@H](NC(=O)[C@H](CCC(=O)O)NC(=O)[C@@H]1CCCN1C(=O)[C@H](CCC(=O)O)NC(=O)[C@@H](N)CO)[C@@H](C)CC)[C@@H](C)O)[C@@H](C)CC)[C@@H](C)CC)C(C)C)C(C)C)[C@@H](C)CC)[C@@H](C)O)[C@@H](C)CC)[C@@H](C)CC)C(=O)N[C@@H](CCCNC(=N)N)C(=O)N[C@@H](CCCNC(=N)N)C(=O)N[C@@H](CC(C)C)C(=O)N[C@H](C(=O)N[C@@H](CCCCN)C(=O)N[C@@H](CCCCN)C(=O)O)[C@@H](C)CC [GpA TM domain]
[1]; 5 µM A8-35, 10 mM phosphate buffer pH 7.4
  α-helix content: 67%
[1]; A8-35 concentrations above 5 µM, CD, 5 µM peptide
  effect of higher APol concentrations on peptide's secondary structure: did not significantly affect the peptide's secondary structure
[1]; in 5 mM DDM
  α-helix content: 79%
[1]; in 5 mM SDS
  α-helix content: 76%
[1]; in TFE (pure)
  α-helix content: 62%
[2]; 25 µM A8-35, FL- and TAMRA-labeled GpA 0.25 µM each, 10 mM HEPES pH 7.4, 150 mM NaCl, incubated at least 2 h at 37°C, measured at 25°C
  dimer fraction: about 0.65
[2]; A8-35 range 5 to 75 µM, in contrast to detergents
  GpA dimer dissociation at relatively higher A8-35 concentrations: do not seem to fully dissociate the GpA dimer
[2]; above 25 µM A8-35 (to 75 µM), FL- and TAMRA-labeled GpA 0.25 µM each
  dimer fraction (in words): decreased only faintly with increasing polymer concentrations
[2]; low A8-35 concentrations (range 5 to 75 µM), FL- and TAMRA-labeled GpA 0.25 µM each
  dimer fraction (in words): Almost all peptides were dimeric
[2]; tested A8-35 range 5 to 75 µM, total labeled peptide 0.5 µM, 10 mM HEPES pH 7.4, 150 mM NaCl, 25°C, read-out: apparent dissociation constant K_D of GpA TM dimer
  Kd: < 300 nM
[3]; 5 mM DDM micelles
  amplitude of first (fast) phase: 13.3
  amplitude of second (slow) phase: 15.6
  exchange rate constant, first (fast) phase: 41.5 h⁻¹
  exchange rate constant, second (slow) phase: 5.8 h⁻¹
[3]; 5 mM DDM micelles, listed as GpA TM peptides
  duration of peptide exchange: completed after some dozen minutes
[3]; 17 h after 1:1 mixing of donor- and acceptor-labeled peptides (each 0.25 µM) in 20 µM A8-35, 25°C
  energy transfer: ~35%
[3]; 17 h after mixing, from energy transfer, 20 µM A8-35, 25°C
  dimer fraction after exchange: ~0.7
[3]; A8-35 (20 µM)
  duration of peptide exchange: proceeded for several hours
[3]; A8-35 (20 µM), 25°C
  amplitude of first (fast) phase: 8.7
  amplitude of second (slow) phase: 12.4
  exchange rate constant, first (fast) phase: 2.2 h⁻¹
  exchange rate constant, second (slow) phase: 0.17 h⁻¹
